Data reported in US20030236175A1, “Process for well fluids base oil via metathesis of alpha-olefins” (priority 2002, published 2003).

Test system: leptocheirus plumulosus
Format: in vivo
Excerpt: This protocol uses leptocheirus plumulosus in a 10-day sediment toxicity test using a reference standard C16-18 IO (internal olefin) (sometimes also designated as C16-C18 IO, C1618 IO, or C16-18 IO) having approximately 65% C16 and 35% C18 olefin.

For `CCCCCCCCC=CCCCCCCCC` [Example 11, 9-octadecene], the “Toxicity, mg/kg” value (LC50, 10-day sediment toxicity test, leptocheirus plumulosus) was 11,279 mg/kg and the Toxicity ratio (ratio of LC50 values, sample vs reference standard C16-18 IO (Equation 1), passing <= 1.0) was 0.63.
